According to US7790697B2, “Compositions and methods for inhibiting the synthesis or expression of MMP-1” (Trustees of Dartmouth College, priority 2004, dated 2010):

Experiments:
[1] = tested on: MDA-231 cells in type I collagen gel; experiment: In vitro collagen gel destruction assay; format: cell-based; details: empty vector MDA-231 cells, 36 hours
Description: In vitro Collagen Gel Destruction Assay. Collagen preparations were carried out on ice to prevent premature jelling. A solution of purified type I bovine collagen (Cohesion Technologies, Palo Alto, Calif.) was neutralized with a sterile 10× phosphate-buffered saline (pH 7.4), and 0.1 M NaOH. The solution of neutralized collagen (2 mg/mL) was mixed with an equivalent volume of cells suspended in serum free DMEM to yield a final concentration of 2×10^5 cells/mL in 1 mg/mL fibrillar collagen, and 1 mL of the collagen/cell mixture was added to each well of a six-well plate. After approximately 1 hour, the collagen jelled, and 1 mL of serum-free media was added on top of the gel. For some experiments, 25 μM ILOMASTAT® (CHEMICON®, Temecula, Calif.), 50 U/mL aprotinin (Sigma, St. Louis, Mo.), 1 μg/mL neutralizing MMP-1 antibody (MMP-1 ab-5; ONCOGENE™ Research Products, San Diego, Calif.), 1 μg/mL monoclonal FLAG® antibody (Sigma, St. Louis, Mo.), or 1% DMSO were added to the collagen before it jelled. After 36 hours of incubation at 37° C. the medium was removed from the top of collagen gels and weighed. The weight of media added at the start of the 37° C. incubation (1 gram) was subtracted from the total media weights to reveal the amount of media liberated by collagen gel destruction.
An in vitro collagen destruction assay was developed to determine whether the MMP-1 levels in MDA-231 cells with the empty vector were functionally capable of degrading a collagen matrix, and whether the shRNA-mediated reduction in MMP-1 was sufficient to change the invasive behavior of the cells. MDA-231 cells harboring either the empty vector or the MMP-1 shRNA were embedded in a solution of type I collagen (1 mL). The collagen was allowed to solidify at 37° C., and 1 mL of serum-free medium was layered on top of each gel. After 36 hours at 37° C., the medium was removed from each well and photographs were taken. No collagen was visible in wells containing MDA-231 cells with the empty vector. […] The medium removed from each well was weighed to quantitate the amount of medium liberated as the gel was destroyed. After 36 hours, approximately 1 mL (0.8±0.06 grams) of medium was liberated from the collagen gels containing the MDA-231 cells with the empty vector. […] Conversely, no medium (−0.01±0.03 grams) was liberated from collagen gels containing MDA-231 cells producing the MMP-1 shRNA. The slight decrease in the volume of medium recovered may be due to evaporation of the medium during the incubation period.

[2] = tested on: MMP-1 protein; experiment: Western blot of MMP-1 protein in culture medium; format: cell-based, human; details: empty vector MDA-231 cells in collagen gel; 50 U/mL; 24 hours
Description: Western Blot Analysis. MDA-231 cells were cultured in 1 mL serum-free DMEM/F12 medium in six-well plates in the presence or absence of a collagen gel, with or without aprotinin (50 U/mL; Sigma, St. Louis, Mo.). After 24 hours, medium was harvested, proteins precipitated with cold 10% trichloroacetic acid, and resuspended in 50 μL SDS loading buffer (PROMEGA®, Madison, Wis.). Following SDS-PAGE and transfer to a PVDF membrane (IMMOBILON™-P; MILLIPORE™, Bedford, Mass.), the membrane was incubated in a 5% milk, Tris-buffered saline solution with 0.1% TWEEN™ (milk TBST) for 1 hour. The membrane was probed with a MMP-1 polyclonal antibody (CHEMICON®, Temecula, Calif.) diluted 1:5000 in milk TBST overnight at 4° C. The membrane was washed three times with TBST, and a 1:2000 dilution of goat anti-rabbit horseradish peroxidase (HRP) conjugated antibody (CELL SIGNALING TECHNOLOGY®, Beverly, Mass.) in milk TBST was added for 60 minutes. The blot was washed three times with TBST, and HRP activity was detected with the WESTERN LIGHTNING® chemiluminescence reagent according to the manufacturer's instructions (PERKINELMER®, Boston, Mass.).
The three MMPs primarily responsible for degrading type 1 collagen are MMP-1, MMP-13, and the membrane bound MT1-MMP (Stamenkovic (2003) J. Pathol. 200:448-64). […]

[3] = tested on: MDA-231 cells; experiment: Creation and subcloning of stable MDA-231 cell lines; format: cell-based; details: PSUPER-retro plasmid, G418 selection and subcloning
Description: Transfection of NIH/3T3 and MDA-231 Cells. NIH/3T3 cells were transiently transfected with LIPOFECTAMINE™ 2000 (INVITROGEN™, Carlsbad, Calif.) along with 0.5 μg peGFP, 0.5 μg pCMV-MMP-1, and 2 μg PSUPER™-MMP-1 shRNA or PSUPER™ with no insert. Transfection efficiency was monitored using eGFP signal. Total cellular RNA was harvested 48 hours after transfection and analyzed for MMP-1 mRNA by real-time RT-PCR. MDA-231 cells were stably transfected in triplicate with LIPOFECTAMINE™ 2000 (INVITROGEN™, Carlsbad, Calif.) and 2 μg of the PSUPER™.Retro.Neo.GFP plasmid containing the MMP-1 shRNA, the scrambled sequence or just the empty vector. Stable cell lines were selected by growth in the presence of 1 mg/mL G418 (STRATAGENE®, La Jolla, Calif.). Individual, stable cell lines were isolated with cloning disks according to the manufacturer's instructions (PGC Scientifics, Frederick, Md.).
Three groups of stable MDA-231 cell lines were created. One group contained only the PSUPER™-retro plasmid, a second group contained a PSUPER™-retro plasmid with the scrambled shRNA sequence, and the third contained a PSUPER™-retro plasmid with the MMP-1 shRNA oligonucleotide.

aprotinin [reference compound]
medium liberated from collagen gels ([1]; 50 U/mL collagen embedded): 0.01±0.1 grams
MMP-1 bands in medium / activation of proMMP-1 (western blot) [2]: only the higher molecular weight zymogen band

scrambled shRNA: Control shRNA with identical hairpin loop and linker, sequence not complementary to any human gene (SEQ ID NO:6) (AAGTGGAGGGACGTATGCA; the letters are possibly those of the target site)
growth and survival of stably transfected cells [3]: did not grow well, and did not survive the subcloning procedures

CNC(=O)[C@H](Cc1c[nH]c2ccccc12)NC(=O)[C@@H](CC(=O)NO)CC(C)C [ILOMASTAT®, ILOMASTAT, reference compound]
medium liberated from collagen gels ([1]; 25 μM/gel inhibitor embedded): −0.1±0.08 grams
